# pIC50: −log10 of the molar value.
# How the values were obtained:
# human hepatocytes = test: Metabolic degradation in human hepatocytes (intrinsic clearance); type: in vitro ADME; conditions: human hepatocyte suspension, 1 μM test compound, 5% human serum, 6 h
# Procedure: Determination of Metabolic Degradation in Human Hepatocytes for Compounds of the Invention
# The metabolic degradation of the test compound is determined in a hepatocyte suspension. Hepatocytes (typically cryopreserved) are incubated in an appropriate buffer system (e.g. Dulbecco's modified eagle medium plus 3.5 μg glucagon/500 mL, 2.5 mg insulin/500 mL and 3.75 mg/500 mL hydrocortison) containing 5% human serum.
# Following a (typically) 30 min preincubation in an incubator (37° C., 10% CO2), 5 μl of test compound solution (80 μM; from 2 mM in DMSO stock solution diluted 1:25 with medium) are added into 395 μl hepatocyte suspension (cell density in the range 0.25-5 Mio cells/mL, typically 1 Mio cells/mL; final concentration of test compound 1 μM, final DMSO concentration 0.05%). The cells are incubated for six hours (incubator, orbital shaker) and samples (25 μl) are taken at 0, 0.5, 1, 2, 4 and 6 hours. Samples are transferred into acetonitrile and pelleted by centrifugation (5 min). The supernatant is transferred to a new 96-deepwell plate, evaporated under nitrogen and resuspended.
# Decline of parent compound is analyzed by HPLC-MS/MS.
# CLint is calculated as follows CL_[…]=Dose/AUC=(CO/CD)/(AUD+clast/k)×1000/60. C0: initial concentration in the incubation [μM], CD: cell density of vital cells [10e6 cells/mL], AUD: area under the data [μM×h], clast: concentration of last data point [μM], k: slope of the regression line for parent decline [h−1].
# hMCH-1R = hMCH-1R (Homo sapiens (Human), UniProt Q99705); test: MCH-1 receptor binding test (125I-MCH binding to hMCH-1R transfected cell membranes); conditions: competition with 100 pM 125I-MCH, membranes of CHO/Galpha16 cells stably transfected with hMCH-1R
# Sequence of hMCH-1R (Q99705 whole entry): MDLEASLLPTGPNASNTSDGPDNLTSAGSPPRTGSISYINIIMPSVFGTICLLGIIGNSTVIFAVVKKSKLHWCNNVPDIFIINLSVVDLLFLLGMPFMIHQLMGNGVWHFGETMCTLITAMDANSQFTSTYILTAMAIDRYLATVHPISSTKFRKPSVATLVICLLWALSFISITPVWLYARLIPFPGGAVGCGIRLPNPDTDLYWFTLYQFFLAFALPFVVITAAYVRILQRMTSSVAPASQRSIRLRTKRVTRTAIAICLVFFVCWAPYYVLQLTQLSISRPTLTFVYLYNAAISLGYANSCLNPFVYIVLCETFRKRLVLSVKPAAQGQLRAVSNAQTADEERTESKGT
SMILES,CLint (human hepatocytes) [μL/min/10e6 cells],pIC50 (hMCH-1R)
"Cc1cc(CN(C)C)ccc1C(=O)Cn1ccc(OCc2ccc(Cl)cn2)cc1=O [Example 3.9, 4-(5-Chloro-pyridin-2-ylmethoxy)-1-[2-(4-dimethylaminomethyl-2-methyl-phenyl)-2-oxo-ethyl]-1H-pyridin-2-one]",13.8,7.49
"Cc1cc(CN(C)C)ccc1C(=O)Cn1ncc(OCc2ccccc2)cc1=O [Example 5.2, 5-Benzyloxy-2-[2-(4-dimethylaminomethyl-2-methyl-phenyl)-2-oxo-ethyl]-2H-pyridazin-3-one]",4.8,8.05
"Cc1cc(CN(C)C)ccc1C(=O)Cn1ccc(OCc2ccc(Br)cn2)cc1=O [Example 4.1, 4-(5-Bromo-pyridin-2-ylmethoxy)-1-[2-(4-dimethylaminomethyl-2-methyl-phenyl)-2-oxo-ethyl]-1H-pyridin-2-one]",20.7,7.77
"Cc1cc(CN(C)C)ccc1C(=O)Cn1ccc(OCc2ccccc2)cc1=O [Example 1.8, 4-Benzyloxy-1-[2-(4-dimethylaminomethyl-2-methyl-phenyl)-2-oxo-ethyl]-1H-pyridin-2-one]",3.9,7.77
"COc1ccc(COc2cnn(CC(=O)c3ccc(CN(C)C)cc3C)c(=O)c2)nc1 [Example 9.1, 2-[2-(4-Dimethylaminomethyl-2-methyl-phenyl)-2-oxo-ethyl]-5-(5-methoxy-pyridin-2-ylmethoxy)-2H-pyridazin-3-one]",3.3,7.55

# From patent publication US8933079B2, “Pyridone and pyridazinone derivatives as anti-obesity agents” (Boehringer Ingelheim International GmbH, priority 2012, dated 2015)
